In PubChem BioAssay (NCI):
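Where inhibition never reached the appropriate level, the endpoint shown equals the highest concentration tested. Otherwise, values were interpolated linearly from a five-concentration, 48-hour dose response in 96-well plates. Here, GI50 denotes the concentration required for 50% inhibition of growth. Definition used: TGI = concentration required for complete inhibition of growth.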

What was measured:
Experiment in all cases: NCI anticancer screen, dose series, 48 h
NCI-H23 lung = system: NCI-H23 lung
NCI-H460 lung = system: NCI-H460 lung
NCI-H522 lung = system: NCI-H522 lung
NCI/ADR-RES ovarian = system: NCI/ADR-RES ovarian
OVCAR-3 ovarian = system: OVCAR-3 ovarian
OVCAR-4 ovarian = system: OVCAR-4 ovarian
OVCAR-5 ovarian = system: OVCAR-5 ovarian
OVCAR-8 ovarian = system: OVCAR-8 ovarian
PC-3 prostate = system: PC-3 prostate
RPMI-8226 leukemia = system: RPMI-8226 leukemia
RXF 393 renal = system: RXF 393 renal
SF-268 CNS = system: SF-268 CNS
SF-295 CNS = system: SF-295 CNS
SF-539 CNS = system: SF-539 CNS
SK-MEL-2 melanoma = system: SK-MEL-2 melanoma
SK-MEL-28 melanoma = system: SK-MEL-28 melanoma
SK-MEL-5 melanoma = system: SK-MEL-5 melanoma
SK-OV-3 ovarian = system: SK-OV-3 ovarian
SN12C renal = system: SN12C renal
SNB-19 CNS = system: SNB-19 CNS
SNB-75 CNS = system: SNB-75 CNS
SR leukemia = system: SR leukemia
SW-620 colon = system: SW-620 colon
T-47D breast = system: T-47D breast
TK-10 renal = system: TK-10 renal
U251 CNS = system: U251 CNS
UACC-257 melanoma = system: UACC-257 melanoma
UACC-62 melanoma = system: UACC-62 melanoma
UO-31 renal = system: UO-31 renal

NCCCCCn1c2c(c3ccccc3c1=O)C(=O)c1ccccc1-2
TGI (NCI-H23 lung): 1470 nM | GI50 (NCI-H460 lung): 53.7 nM | TGI (NCI-H460 lung): 1020 nM | GI50 (NCI-H522 lung): 215 nM | TGI (NCI-H522 lung): 1690 nM | GI50 (NCI/ADR-RES ovarian): 1410 nM | TGI (NCI/ADR-RES ovarian): 4860 nM | GI50 (OVCAR-3 ovarian): 1100 nM | TGI (OVCAR-3 ovarian): 6740 nM | GI50 (OVCAR-4 ovarian): 1540 nM | TGI (OVCAR-4 ovarian): 5580 nM | GI50 (OVCAR-5 ovarian): 999 nM | TGI (OVCAR-5 ovarian): 3840 nM | GI50 (OVCAR-8 ovarian): 497 nM | TGI (OVCAR-8 ovarian): 10500 nM | GI50 (PC-3 prostate): 1230 nM | TGI (PC-3 prostate): 5370 nM | GI50 (RPMI-8226 leukemia): 222 nM | TGI (RPMI-8226 leukemia): 1510 nM | GI50 (RXF 393 renal): 2830 nM | TGI (RXF 393 renal): > 26300 nM | GI50 (SF-268 CNS): 321 nM | TGI (SF-268 CNS): 3060 nM | GI50 (SF-295 CNS): 527 nM | TGI (SF-295 CNS): 6380 nM | GI50 (SF-539 CNS): 864 nM | TGI (SF-539 CNS): 2480 nM | GI50 (SK-MEL-2 melanoma): 1410 nM | TGI (SK-MEL-2 melanoma): 2960 nM | GI50 (SK-MEL-28 melanoma): 1460 nM | TGI (SK-MEL-28 melanoma): 3160 nM | GI50 (SK-MEL-5 melanoma): 617 nM | TGI (SK-MEL-5 melanoma): 2050 nM | GI50 (SK-OV-3 ovarian): 531 nM | TGI (SK-OV-3 ovarian): 2160 nM | GI50 (SN12C renal): 305 nM | TGI (SN12C renal): 3970 nM | GI50 (SNB-19 CNS): 465 nM | TGI (SNB-19 CNS): 7660 nM | GI50 (SNB-75 CNS): 1200 nM | TGI (SNB-75 CNS): 6920 nM | GI50 (SR leukemia): 35 nM | TGI (SR leukemia): 726 nM | GI50 (SW-620 colon): 166 nM | TGI (SW-620 colon): 4090 nM | GI50 (T-47D breast): 451 nM | TGI (T-47D breast): 2140 nM | GI50 (TK-10 renal): 714 nM | TGI (TK-10 renal): 7080 nM | GI50 (U251 CNS): 232 nM | TGI (U251 CNS): 4110 nM | GI50 (UACC-257 melanoma): 2000 nM | TGI (UACC-257 melanoma): 4700 nM | GI50 (UACC-62 melanoma): 1420 nM | TGI (UACC-62 melanoma): 3370 nM | GI50 (UO-31 renal): 238 nM | TGI (UO-31 renal): 1530 nM
